Common to all, as to format: in vivo, mouse
In one assay the test system is Npc1 transcript. Kind of assay: qPCR of Npc1 transcript in brain. The following applies: at 100 days. On the procedure: (§1) Vorinostat (50 mg/Kg)—Vorinostat was first dissolved in DMSO (100 mg/ml) and then diluted with 9 volume of Polyethylene Glycol 400 (PEG). This drug solution was named as ‘solution A’. Solution A was diluted with equal volume of water where the final concentration of each component was as follows; Vorinostat, 5 mg/ml; DMSO, 5% and PEG, 45%. Mice were given weekly intraperitoneal (i.p) injections starting at 21 days. Vorinostat (100 mg/Kg)—Vorinostat was first dissolved in DMSO (200 mg/ml) and then mixed with 9 volumes of PEG. Rest of the methods and injections plan were as described above. HPBCD (4000 mg/Kg)—40% HPBCD solution prepared in water. Mice were given weekly i.p injections starting at 7 days. HPBCD (2000 mg/Kg)—20% HPBCD solution prepared in water. Mice were given weekly i.p injections starting at 7 days. TCF (Vorinostat, 50 mg/Kg+HPBCD, 2000 mg/Kg, DMSO, 5%+PEG, 45%)—To prepare the formulation, the ‘solution A’ was first prepared as described above and equal volume of 40% HPBCD solution was slowly layered on top of it. The solution was gently mixed for 10 min at RT on rocker set at medium speed. […]
(§2) Quantitative PCR (qPCR) was performed using Power SYBR Green RNA-to-CT 1-Step Kit and an ABI Prism 7500 Fast real-time PCR system (Applied Biosystems, Grand Island, USA). […] The relative amount of transcript was determined using comparative CT method. […]
On the technique in general: Real-time PCR tracks product formation cycle by cycle.

For the next assay, the system named is histone H3 and H4. Kind of assay: Histone acetylation in the brain (western blot). The following applies: within an hour of i.p. administration; Vo 50 mg/Kg in PEG; HPBCD 2000 mg/Kg. On the procedure: Npc1^nmf164 mice (6-7 weeks) were injected with either Vorinostat (50 mg/kg) or TCF through i.p route. Mice were sacrificed 1 hpi (1 hour post-injection) by asphyxiation using CO2. After homogenization of tissue, Histones were extracted using EpiQuik Total Histone extraction kit (Epigentek, NY, USA) as per manufacturer's instructions. Antibodies to Histone H3 (Lys14) and H4 (Lys5/8/12/16) from Millipore (CA, USA) were used in western blotting.
A general note: In western blotting, separated proteins are transferred to a membrane and probed.

A further assay concerns macrophages in the liver. Kind of assay: Liver macrophage labeling (anti-CTSS immunofluorescence). The following applies: 100 days, Vo 50 mg/Kg, HPBCD 2000 mg/Kg, TCF. As to the method:
(§3) Mice were sacrificed by asphyxiation using CO2. Harvested organs were immersed fixed in 10% neutral buffered formalin (˜4% formaldehyde) for 24 hrs at RT. The organs were subsequently stored in 70% alcohol at RT until transfer to paraffin. Paraffin-embedded tissue sections (4-5 μm) were dewaxed in xylene and alcohol. Calbindin antigen retrieval was done by pre-incubating deparaffinized samples with 0.05% proteinase K (Dako, Germany) in 50 mM Tris-HCl (pH 7.5) for 8 min at RT. CTSS and NPC1 was retrieved by boiling the sections in acidic condition for 30 min. Blocking was done either with 2% goat serum (for calbindin and NPC1) or 2% rabbit serum (for cathepsin S) for 30 min at RT. Sections were incubated with anti-calbindin (1:1000, C9848, Sigma), anti-cathepsin S (20 μg/ml, M-19, Santa Cruz Biotechnology), anti-NPC1 (custom made against human NPC1 protein, 20 μg/ml) overnight at 4° C. The appropriate FITC or TRITC-conjugated secondary IgG (MP Biomedicals, Solon, Ohio, USA) antibodies were used at 1:200 dilution. Sections were subsequently washed with PBS containing DAPI (0.5 μg/ml). Vectashield (Vector laboratories) was used as mounting medium and processed for fluorescence microscopy.
(§4) Tissue sections after IFA and filipin stained fibroblasts were visualized with 40× oil-immersion objective lens (NA 1.35). Filipin stain was visualized using DAPI filter. Digital image collection were performed using an Olympus IX inverted fluorescence microscope and a Photometrix cooled CCD camera (CH350/LCCD) driven by DeltaVision software from Applied Precision (Seattle, Wash., USA). DeltaVision software (softWoRx) was used to deconvolve these images. Images are single optical sections. Images were analyzed using ImageJ software (NIH, MD, USA).

A further assay relates to Npc1^nmf164 mice. Kind of assay: Neurobehavioral assessment (cumulative disease score 0-13). The note with it: for cumulative neurobehavioral disease score: at 105-112 days, scale 0-13, Vo 50 mg/Kg, 2×HPBCD 4000 mg/Kg, TCF; for onset of individual symptoms (gait, grooming, limb tone, weight): weekly i.p. treatment. As to the method: A modified version of previously described method (Carroll et al., 2010) was used for assessing the neurobehavioral functions in mice. Six different parameters (FIG. 3A) associated with neurobehavioral functions of mice were assessed. Each mouse was assessed individually in an observation box (length, 31.8 cm, width, 19.8 cm and height, 10.5 cm) with a grid floor. A mouse was assessed for tremor (0 and 2), body position (0, 1 and 2), gait (0, 1 and 2), grooming (0, 1 and 2), limb tone (0, 1 and 2), and weight loss (0, 1, 2 and 3). For each symptom except weight, a mouse received a score 0 if no symptom was observed and score 2 when the most severe impairment in the function was seen. A mouse was given score 0 for weight loss below 5%, 1 for 5-10%, 2 for >10 and up to 20%, and 3 for >20 up to 30%. A cumulative score of 0-3 correlate with no neurobehavioral impairment and a score of 13 is the most impaired neurobehavioral function. Operator-independence scoring was also tested by two independent blinded operators on 6 NPC (Npc1^nmf164) and 4 healthy control (Npc1^+/nmf164) mice.

The next assay deals with Calbindin1 transcripts. Put plainly: qPCR of Calbindin1 transcripts in the brain. The note with it: day 100, once weekly dosing; Vo 50 mg/Kg; 2×HPBCD 4000 mg/Kg; TCF. On the procedure: as §1, §2
The test system of a further assay is Purkinje cells. Put plainly: Calbindin immunofluorescence, Purkinje cell count in cerebellar sections. The following applies: day 100, once weekly dosing. As to the method:
as §3, §4

Consider `CC(O)COC[C@H]1O[C@@H]2O[C@H]3[C@H](O)[C@@H](O)[C@@H](O[C@H]4[C@H](O)[C@@H](O)[C@@H](O[C@H]5[C@H](O)[C@@H](O)[C@@H](O[C@H]6[C@H](O)[C@@H](O)[C@@H](O[C@H]7[C@H](O)[C@@H](O)[C@@H](O[C@H]8[C@H](O)[C@@H](O)[C@@H](O[C@H]1[C@H](O)[C@H]2O)O[C@@H]8COCC(C)O)O[C@@H]7COCC(C)O)O[C@@H]6COCC(C)O)O[C@@H]5COCC(C)O)O[C@@H]4COCC(C)O)O[C@@H]3COCC(C)O` (stereo partly drawn) [HPBCD, 2-Hydroxypropyl-β-cyclodextrin], for which, in the assay on Npc1 transcript, the “Npc1 transcript levels in the brain” value is recorded as “little or no effect on brain Npc1 transcript levels”. The “acetylation of histone 3 or 4 (H3 or H4) in the brain (in words)” value in the assay on histone H3 and H4 was “neither vehicle control (PEG+DMSO) nor HPBCD stimulated significant acetylation”. Moreover, the “macrophages in the liver (histology)” value in the assay with macrophages in the liver is “Foamy macrophages were barely seen”. Moreover, in the assay on Npc1^nmf164 mice, the “cumulative neurobehavioral disease score” value is 6-8; the “onset of individual symptoms (gait, grooming, limb tone, weight)” value was “Worsening in gait, grooming and weight were also delayed by 2×HPBCD, but less so than by the TCF”. The “expression of calbindin transcripts in the brain” value in the assay with Calbindin1 transcripts is listed as “no change or depressed levels of calbindin transcripts”. Moreover, the “Purkinje cells in the cerebellum (in words)” value (“Purkinje cells” below) with Purkinje cells is recorded as “Few lightly stained Purkinje cells”. Besides, the “Purkinje cells” value with Purkinje cells (listed as 2×HPBCD) is reported as “minor protection of Purkinje cell”.
Take `O=C(CCCCCCC(=O)Nc1ccccc1)NO` [vorinostat]: the “Npc1 transcript levels in the brain” value in the assay on Npc1 transcript is “little or no effect on brain Npc1 transcript levels”. Further, in the assay with histone H3 and H4, the “acetylation of histone 3 or 4 (H3 or H4) in the brain (in words)” value is “low levels of acetylation”. In addition, the “macrophages in the liver (histology)” value is listed as “also had effect but less so than TCF or HPBCD” with macrophages in the liver and “reduced the clustering of macrophages” with macrophages in the liver (listed as Vo). The “cumulative neurobehavioral disease score” value in the assay with Npc1^nmf164 mice is reported as 9-11. Also, the “onset of individual symptoms (gait, grooming, limb tone, weight)” value in the assay on Npc1^nmf164 mice is listed as “no consistent, significant advantage in any symptomatic read out”. The “expression of calbindin transcripts in the brain” value in the assay on Calbindin1 transcripts is on record as “no change or depressed levels of calbindin transcripts”. For the same compound, the “Purkinje cells” value with Purkinje cells is given as “no effect”; in the assay with Purkinje cells (listed as Vo), “Loss of Purkinje cells”.

The record behind these values is patent US10413517B2, “Composition and method for the treatment of neurological diseases and cerebral injury” (UNIVERSITY OF NOTRE DAME DU LAC, priority 2014, dated 2019).
